Test in all cases: NCI-60 cell line screen, 48 h
Assay [1] deals with SK-MEL-5 melanoma.
Assay [2] relates to A549 NSCLC.
Assay [3] concerns CCRF-CEM leukemia.
The subject of assay [4] is SN12C renal.
The test system of assay [5] is K-562 leukemia.
Assay [6] relates to KM12 colon.
Assay [7] deals with ACHN renal.
The subject of assay [8] is HOP-92 NSCLC.
In assay [9] the test system is SF-539 CNS.
For assay [10], the system named is NCI-H522 lung.

The values that follow come from PubChem BioAssay (NCI).

The structures appear in SMILES notation.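 Five compound concentrations were applied to cells in 96-well plates for 48 hours; endpoints were derived by simple linear interpolation of the resulting dose-response curve. At the GI50, growth is halved. The concentration for full growth arrest is given as TGI.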 Where a SMILES comes first, the peptide text is derived from it. [ ]: non-standard residue; d: D form.

`Cc1ccc([N+]2=NC(c3ccccc3)=NN(c3ccccc3)C2)cc1`: the TGI in [1] was 73.6 µM; in [2] it was > 100 µM; in [3] it was 79.9 µM; in assay [4] it was > 100 µM; in [5], > 100 µM; in [6] it was > 100 µM. Also, the TGI in [7] is > 100 µM.

Take `CN1C/C(=C\c2ccc(C(=O)O)cc2)C(=O)/C(=C/c2ccc(C(=O)O)cc2)C1`: the TGI in [1], in assay [2], in [8], in assay [3], in assay [4] and in assay [5] was > 100 µM each time. Besides, the TGI in assay [6], in assay [9] and in assay [7] was > 100 µM throughout.

Turning to `O/N=C1\C(=C\c2ccc3c(c2)OCCO3)CCCC1C(NO)c1ccc2c(c1)OCCO2` (configuration not stated), the TGI was 30.1 µM in assay [1]; > 100 µM in assay [2]; 93.4 µM in assay [8]; 48.9 µM in assay [3]; 29.8 µM in assay [4]; 29.6 µM in [10]. Besides, the figures for the TGI in assay [6], in assay [9] and in assay [7] were 52 µM, 26.8 µM and > 100 µM, respectively.

Regarding `COC(=O)C(=O)C(C#N)c1c(Cl)cccc1Cl` (configuration not stated), the TGI in assay [1], in assay [2], in assay [8], in assay [4], in assay [10] and in [5] was > 100 µM each time. Besides, the TGI in [9] and in assay [7] was > 100 µM in each case.

`C=C(CN1CCN(c2ccc(F)c(Cl)c2)CC1)c1ccc(C(=O)Nc2ccccc2N)cc1`: the GI50 in assay [1] is 5.62 µM; in assay [2], 3.81 µM; in [8] it was 2.15 µM; in assay [4], 5.1 µM; in assay [10] it was 1.8 µM; in assay [5] it was 2.41 µM. Also, the GI50 was 4.07 µM in [6], 5.79 µM in [9] and 6.43 µM in assay [7]. In addition, the TGI in assay [1] is 22.3 µM; in [2] it was 24.5 µM; in [8], 11.6 µM; in assay [4], 59.5 µM; in assay [10] it was 5.33 µM; in assay [5], 14.2 µM. In addition, the TGI in assay [6] was > 100 µM; in assay [9], 26.2 µM; in assay [7] it was > 100 µM.

Turning to `Cc1c(C2CCSc3ccccc3N2)sc2ccccc12` (configuration not stated), the TGI in assay [1], in [2], in assay [8], in assay [4], in assay [10] and in [5] was > 100 µM in each case. Also, the TGI in [6], in assay [9] and in [7] was > 100 µM throughout.

Regarding `N/C(CC(=O)NOC(=O)c1ccccc1)=N/OC(=O)c1ccccc1`, the TGI in assay [1] is > 100 µM; in assay [2], > 100 µM; in [8] it was > 100 µM; in assay [3] it was > 100 µM; in [4], > 100 µM; in assay [5], 71.7 µM. Besides, the values for the TGI in assay [6], in assay [9] and in assay [7] were > 100 µM, 54.8 µM and > 100 µM, respectively.

Regarding `CC(=O)OC1=C(CC(C)(C)C)C(=O)c2ccccc2C1=O`, the TGI in [1] was 51.3 µM; in assay [3] it was 55.6 µM; in [5], 39.9 µM; in assay [6] it was > 100 µM; in assay [9], > 100 µM; in assay [7] it was > 100 µM.

Regarding `CCN1CCC(O)(/C=C/c2ccccc2)C(C(=O)/C=C/c2ccccc2)C1` (configuration not stated), the TGI in assay [1] is 12.2 µM; in [2], 16.8 µM; in assay [8], 8.76 µM; in assay [4], 3.7 µM; in [10], 3.36 µM; in assay [6], 3.44 µM. Moreover, the TGI in [9] was found to be 3.76 µM; in [7] it was 3.23 µM.

Turning to `CC1OC(=O)N2CCC=CC12` (configuration not stated), the TGI in assay [1], in assay [2], in assay [3], in assay [4], in assay [10] and in assay [5] was > 100 µM each time. Moreover, the TGI in assay [6], in [9] and in [7] was > 100 µM throughout.

Consider `C[C@H]1CC[C@@H]2[C@@H](C)[C@H]3[C@H](C[C@H]4[C@@H]5CC=C6C[C@@H](O)CC[C@]6(C)[C@H]5CC[C@]34C)N2C1`, for which the TGI is > 100 µM in assay [1]; > 100 µM in assay [2]; 58.3 µM in [8]; > 100 µM in assay [3]; > 100 µM in assay [4]; > 100 µM in [10]. For the same molecule, the TGI in [6], in assay [9] and in assay [7] was > 100 µM each time.

On to `CC(=O)/C(=C/N1CCN(C(=O)c2ccco2)C1=S)C(=O)c1ccccc1`, for which the GI50 in [1] was 8.12 µM; in assay [2], 10.8 µM; in [8], 11.1 µM; in [4], 7.65 µM; in [5], 6.66 µM; in assay [6], 8.4 µM. The GI50 in assay [9] is 1.09 µM; in assay [7] it was 6.9 µM. Moreover, the TGI is 15.4 µM in [1]; 26.9 µM in assay [2]; 32.1 µM in [8]; 15.2 µM in [4]; 41.6 µM in assay [5]; > 50 µM in assay [6]. The TGI worked out at 3.56 µM in assay [9] and 17.6 µM in assay [7].

`C#C[C@@H](CCCC)OC(=O)N[C@H](C)c1ccccc1`: the TGI in [1] was 46.5 µM; in [2] it was > 100 µM; in [3], > 100 µM; in assay [4], > 100 µM; in [5], > 100 µM; in assay [6], > 100 µM. Besides, the TGI in assay [7] is > 100 µM.

With `CSCC[C@H](NC(=O)[C@@H](N)CC(N)=O)C(=O)N[C@@H](Cc1c[nH]c2ccccc12)C(=O)N[C@@H](CCC(N)=O)C(=O)N[C@@H](CCC(=O)O)C(=O)N[C@H](C(=O)NCC(=O)N[C@@H](CCCCN)C(=O)N[C@H](C)C(=O)O)C(C)C` (H-NMWQEVGK[dA]-OH), the TGI in assay [1], in [2], in assay [8], in assay [3], in assay [4] and in assay [5] was > 100 µM in each case. For the same molecule, the TGI in [6], in assay [9] and in assay [7] was > 100 µM throughout.

Regarding `COc1ccc(/C=C2/CSC/C(=C/c3ccc(OC)c(OC)c3)C2=O)cc1OC`, the TGI in assay [1] stood at 7.01 µM; in [2], 8.39 µM; in assay [8], 43.7 µM; in assay [4], 4.13 µM; in [10] it was 5.83 µM; in assay [6], 3.26 µM. For the same molecule, the TGI in [9] was found to be 10.6 µM; in assay [7], 5.58 µM.

Turning to `C1CC[N-]CC1.CC(=N\O)/C(C)=N/O.CC(=N\O)/C(C)=N/O.C[CH-]C(C)O.[Co+2]`, the GI50 was 20.1 µM in assay [1]; 47.3 µM in [2]; 19.4 µM in assay [8]; 40.1 µM in assay [4]; 10.3 µM in assay [10]; 19.3 µM in assay [5]. Moreover, the GI50 in [6] was 34.3 µM; in assay [9], 24 µM; in [7], 23.8 µM. In addition, the TGI is 43.1 µM in assay [1]; > 100 µM in assay [2]; 48.6 µM in assay [8]; > 100 µM in [4]; 22 µM in [10]; 45.8 µM in [5]. Moreover, the values for the TGI in [6], in assay [9] and in [7] were > 100 µM, 94.4 µM and 81.2 µM, respectively.

Take `O=[N+]([O-])c1ccc2nc(-c3ccc(Cl)cc3)[nH]c2c1`: the TGI in assay [1] is 29.7 µM; in [2], 70.5 µM; in assay [8] it was 64.2 µM; in [4], > 100 µM; in assay [10], 30.5 µM; in assay [9], 39.6 µM. Besides, in [7], the TGI amounted to 67.9 µM.

On to `CC/C(C)=C1\CCC(CN(C)C)C1=O` (configuration not stated), for which the TGI in assay [1] came to 91.5 µM; in assay [2] it was 49.2 µM; in assay [8], 46.2 µM; in assay [3] it was 39.8 µM; in assay [4] it was 38.3 µM; in assay [5], 79.5 µM. Further, the TGI in assay [6] was determined as 28.4 µM; in [9], 32.7 µM; in [7] it was 33.2 µM.

As to `Cc1nc(-n2nc(-c3ccccc3)cc2-c2ccccc2)sc1C(=O)CC(=O)C(=O)Nc1ccc(O)cc1`, the TGI in assay [2], in [3], in assay [4], in [10], in assay [5] and in assay [6] was > 100 µM throughout. The TGI in [9] and in assay [7] was > 100 µM in each case.

`CCSc1nc(N)c2cnn(CC)c2n1`: the GI50 in [1] was 2.58 µM; in assay [2] it was 3.83 µM; in [3] it was 3.58 µM; in assay [4], 4.12 µM; in assay [10] it was > 100 µM; in assay [5] it was 9.11 µM. The GI50 in assay [6] is 3.15 µM; in assay [9] it was 6.67 µM. The TGI is 8.05 µM in assay [1]; 20.9 µM in [2]; 10.8 µM in assay [3]; 26.1 µM in [4]; > 100 µM in assay [10]; > 100 µM in assay [5]. In addition, the figures for the TGI in assay [6] and in assay [9] were > 100 µM and 27.3 µM, respectively.

As to `C=Cc1cc(OC)c2c(c1)c(=O)oc1c2cc(OC)c2c(O)ccc(C3OC(C(C)O)C(O)C3O)c21` (configuration not stated), the GI50 in [1] is 0.00775 µM; in assay [2] it was 0.0146 µM; in assay [8] it was 0.0126 µM; in [3], 0.00245 µM; in [4] it was 0.0229 µM; in [10] it was 0.00475 µM. Besides, the GI50 is 0.00355 µM in assay [5], 0.00674 µM in [6] and 0.0146 µM in assay [9]. Moreover, the TGI in assay [1] came to 0.0555 µM; in assay [2], 0.414 µM; in assay [8], 0.3 µM; in assay [3], 0.0312 µM; in assay [4], 0.172 µM; in [10] it was 0.03 µM. The TGI in assay [5] is 0.126 µM; in assay [6], 0.0499 µM; in [9] it was 0.0527 µM.

As for `Cn1cccc1-c1cc(-c2ccccc2)nc(N)c1C#N`, the GI50 in assay [1] was 98.7 µM; in assay [2], > 100 µM; in assay [4], > 76.8 µM; in assay [10] it was > 78.2 µM; in assay [5] it was > 100 µM; in assay [6], > 100 µM. The GI50 in assay [9] was > 58.3 µM; in assay [7], > 100 µM. For the same molecule, the TGI in assay [1], in [2], in assay [4], in [10], in assay [5] and in assay [6] was > 100 µM throughout. For the same molecule, the TGI in assay [9] and in [7] was > 100 µM in each case.

Regarding `N#CNC1=NCCC(=O)N1CCc1c[nH]c2ccccc12`, the TGI in assay [1], in assay [2], in [3], in assay [4], in assay [5] and in assay [6] was > 100 µM each time. The TGI in [9] is > 100 µM.

As to `COC1CC(n2cc(F)c(N)nc2=O)OC1CO` (configuration not stated), the TGI in [1], in [2], in [8], in assay [3], in assay [4] and in assay [10] was > 100 µM each time. Further, the TGI in assay [5], in assay [6] and in assay [7] was > 100 µM each time.

In the case of `Nc1ccn(C2CC3OCC3O2)c(=O)n1` (configuration not stated), the TGI in [1], in [2], in assay [3], in [4], in assay [10] and in assay [5] was > 100 µM throughout. For the same molecule, the TGI in [6], in [9] and in assay [7] was > 100 µM throughout.

For `O=C1C(=Cc2ccc(F)cc2)C(=O)c2ccccc21`, the TGI in assay [1], in assay [2], in assay [8], in [3], in [10] and in [5] was > 100 µM throughout. For the same molecule, the TGI in assay [6], in assay [9] and in [7] was > 100 µM in each case.
